Assay results published in PMC8395767, “Worsening of the Toxic Effects of (±)Cis-4,4′-DMAR Following Its Co-Administration with (±)Trans-4,4′-DMAR: Neuro-Behavioural, Physiological, Immunohistochemical and Metabolic Studies in Mice” (International Journal of Molecular Sciences, 2021).

How the values were obtained:
8-OHdG = assay: Immunohistochemistry, frontal cortex: 8-OHdG; assay type: in vivo, mice; conditions: for Immunoreactivity of 8-OHdG in the frontal cortex: 30 and 60 mg/kg, vs control
Excerpt: (§1) Following the acute death or the sacrifice of the animals (after 5-h observation period by dislocation of the spine), brains were taken. These were fixed in 4% buffered formalin and then sampled and incorporated into the paraffin (Leica ASP300 processor, Histoline TEC2900 incorporator; Leica Microsystems Srl, Buccinasco, Milano, Italy). Subsequently, the cut (performed with the Leica HistoCore autocut microtome; Leica Microsystems Srl, Buccinasco, Milano, Italy) was designed to create sections with a thickness of 5 µm for each sample.
(§2) On 5-µm-thick paraffined […] sections, we evaluated the expression of a panel of markers: heat shock proteins (HSP27, HSP70, HSP90), SMAC/DIABLO, NF-kB, iNOS, NOX-2, NT, 8-OHDG.
(§3) We used a detection system composed of a biotinylated secondary antibody and HRP-conjugated streptavidin (4plus HRP Universal Detection, Biocare Medical). 3′-,3Diaminobenzidine (DAB) and H2O2 (Betazoid DAB Chromogen Kit, Biocare Medical, Concord, CA, USA) were used as chromogen/substrate. […] In the pictures (sections of the frontal cortex; Figure 3, Figure 4 and Figure 5) to evaluate the variation in the expression of markers (Smac, NOX2, iNOS, 8-OHdG, NT, HSP27, HSP70, HSP90) following treatments, the change in intensity of brown colour (staining of the immunohistochemical technique) in the control and treated tissue was measured. Quantification of Smac, NOX2, iNOS, 8-OHdG, NT, HSP27, HSP70 and HSP90 positive-stained areas was performed by the ImageJ software (imagej.nih.gov/ij/ Accessed date 12 May 2020). […] Positivity was expressed as an extension of the stained analysed area.
(§4) Sweating and salivation were expressed as frequency (e.g., % of animals that developed symptoms); psychomotor agitation was expressed as frequency (% of animals) and duration (total time in mins). Core temperature values were expressed as the difference between control temperature (before injection) and temperature following drug administration (Δ°C). Aggressiveness was expressed as frequency (% of animals which become aggressive) and score (number of bites). […]

iNOS = assay: Immunohistochemistry, frontal cortex: iNOS; assay type: in vivo, mice
Excerpt: as §1, §2, §3, §4

3-nitrotyrosine (NT) = assay: Immunohistochemistry, frontal cortex: NT; assay type: in vivo, mice; conditions: vs control
Excerpt: as §1, §2
(§5) We used a detection system composed of a biotinylated secondary antibody and HRP-conjugated streptavidin (4plus HRP Universal Detection, Biocare Medical). 3′-,3Diaminobenzidine (DAB) and H2O2 (Betazoid DAB Chromogen Kit, Biocare Medical, Concord, CA, USA) were used as chromogen/substrate. The subsequent counterstaining with haematoxylin–eosin allowed the visualization of cell morphology and nuclei. Once this procedure was completed, the slides were mounted and observed under optical microscope. In the pictures (sections of the frontal cortex; Figure 3, Figure 4 and Figure 5) to evaluate the variation in the expression of markers (Smac, NOX2, iNOS, 8-OHdG, NT, HSP27, HSP70, HSP90) following treatments, the change in intensity of brown colour (staining of the immunohistochemical technique) in the control and treated tissue was measured. Quantification of Smac, NOX2, iNOS, 8-OHdG, NT, HSP27, HSP70 and HSP90 positive-stained areas was performed by the ImageJ software (imagej.nih.gov/ij/ Accessed date 12 May 2020). One image for each animal of the different experimental groups was processed. Positivity was expressed as an extension of the stained analysed area.
Sweating and salivation were expressed as frequency (e.g., % of animals that developed symptoms); psychomotor agitation was expressed as frequency (% of animals) and duration (total time in mins). Core temperature values were expressed as the difference between control temperature (before injection) and temperature following drug administration (Δ°C). Aggressiveness was expressed as frequency (% of animals which become aggressive) and score (number of bites). Convulsions were expressed as frequency (% of animals that developed seizure), episodes (e.g., number of seizure events), latency of first episode (sec.) and duration of each episode (sec.). Lethality was expressed as frequency (% of animals that died during the observation period (5 h) or during the following 24 h). The statistical analysis of the effects of the individual substances in different concentrations were performed using a one-way ANOVA followed by a Bonferroni test for multiple comparisons. A Student’s t-test was used to determine statistical significance (p < 0.05) between two groups. Regarding immunohistochemical analysis, positivity was expressed as the extension of stained analysed area. Results were expressed as means ± mean standard error (SEM). Data were analysed by one-way analysis of variance (ANOVA), followed by Tukey’s post-hoc test. For all tests, a p value of <0.05 was considered statistically significant. All statistical analyses were performed using GraphPad Prism 8 software for Windows (La Jolla, CA, USA).

Smac/DIABLO = assay: Immunohistochemistry, frontal cortex: Smac/DIABLO; assay type: in vivo, mice
Excerpt: as §1, §2, §3, §4

HSP27 = assay: Immunohistochemistry, frontal cortex: HSP27; assay type: in vivo, mice
Excerpt: as §1, §2
as §5, with “One image for each animal of the different experimental groups was processed.” left out
Sweating and salivation were expressed as frequency (e.g., % of animals that developed symptoms); psychomotor agitation was expressed as frequency (% of animals) and duration (total time in mins). Core temperature values were expressed as the difference between control temperature (before injection) and temperature following drug administration (Δ°C). Aggressiveness was expressed as frequency (% of animals which become aggressive) and score (number of bites). Convulsions were expressed as frequency (% of animals that developed seizure), episodes (e.g., number of seizure events), latency of first episode (sec.) and duration of each episode (sec.). Lethality was expressed as frequency (% of animals that died during the observation period (5 h) or during the following 24 h). […] Regarding immunohistochemical analysis, positivity was expressed as the extension of stained analysed area. Results were expressed as means ± mean standard error (SEM). […]

HSP70 = assay: Immunohistochemistry, frontal cortex: HSP70; assay type: in vivo, mice
Excerpt: as §1, §2, §3, §4

HSP90 = assay: Immunohistochemistry, frontal cortex: HSP90; assay type: in vivo, mice; conditions: vs control
Excerpt: as §1, §2
We used a detection system composed of a biotinylated secondary antibody and HRP-conjugated streptavidin (4plus HRP Universal Detection, Biocare Medical). […] In the pictures (sections of the frontal cortex; Figure 3, Figure 4 and Figure 5) to evaluate the variation in the expression of markers (Smac, NOX2, iNOS, 8-OHdG, NT, HSP27, HSP70, HSP90) following treatments, the change in intensity of brown colour (staining of the immunohistochemical technique) in the control and treated tissue was measured. Quantification of Smac, NOX2, iNOS, 8-OHdG, NT, HSP27, HSP70 and HSP90 positive-stained areas was performed by the ImageJ software (imagej.nih.gov/ij/ Accessed date 12 May 2020). […]

[1] = Excretion studies on urine samples (LC-MS/MS); assay type: in vivo, mice
Procedure: To study the possible metabolic interaction between cis and trans isomers, we chose to evaluate urinary excretion and metabolic profile of 4,4′-DMAR, as this allowed us to study and correlate physiological and neuro-behavioural responses in the same individual. For the in vivo studies, three different groups of mice were selected. To the first group, a dose of 10 mg/kg of cis-4,4′-DMAR was administered. To the second group, a dose of 10 mg/kg of both cis and trans-4,4′-DMAR was administered. The third group was selected for the collection of urine blank samples. Urine samples were collected in the range of 0–6 h after 4,4′-DMAR or vehicle were intraperitoneally injected.
Urine samples were treated and analysed through a protocol already used by our group for the analysis of the excretion of stimulant drugs in mice. Briefly, our protocol allowed the conversion of conjugated metabolites (i.e., sulfo- and glucorono-conjugates) to phase I metabolites after two hydrolysis steps. […] The residue was reconstituted with 50 μL of mobile phase and analysed with a targeted LC-MS/MS technique. In details, samples were analysed using an Agilent 1200 series HPLC instrument equipped with a SUPELCO Discovery C18 column (15 cm × 2.1 mm × 5 µm) coupled with an API4000 QqQ mass spectrometer (Sciex, 500 Old Connecticut Path, Framingham, MA, USA). […]

[2] = recent pharmacokinetic study; cited from earlier work
[3] = 30 and 60 mg/kg, vs control, listed as (±)cis

Cc1ccc(C2OC(N)=NC2C)cc1 (stereo not drawn) [cis-4,4’-DMAR, 4-methyl-5-(4-methylphenyl)-4,5-dihydrooxazol-2-amine]
Immunoreactivity of 8-OHdG in the frontal cortex (8-OHdG): increased
Immunoreactivity of 8-OHdG in the frontal cortex (8-OHdG; listed as (±)cis): overexpressed
Immunoreactivity of iNOS in the frontal cortex (iNOS; 60 mg/kg, vs control): increased
Immunoreactivity of iNOS in the frontal cortex (iNOS; 60 mg/kg, vs control, listed as (±)cis): large increase
Immunoreactivity of 3-nitrotyrosine (NT) in the frontal cortex (3-nitrotyrosine (NT); 10 mg/kg): reduced
Immunoreactivity of 3-nitrotyrosine (NT) in the frontal cortex (3-nitrotyrosine (NT); 30 mg/kg): increased
Immunoreactivity of 3-nitrotyrosine (NT) in the frontal cortex (3-nitrotyrosine (NT); 30 mg/kg, listed as (±)cis): statistically significant increase
Immunoreactivity of 3-nitrotyrosine (NT) in the frontal cortex (3-nitrotyrosine (NT); 60 mg/kg): did not affect
Immunoreactivity of Smac/DIABLO in the frontal cortex (Smac/DIABLO; 30 and 60 mg/kg, vs control): increased
Immunoreactivity of Smac/DIABLO in the frontal cortex (Smac/DIABLO; [3]): significant increase
Immunoreactivity of HSP27 in the frontal cortex (HSP27; 10 mg/kg alone): ineffective
Immunoreactivity of HSP27 in the frontal cortex (HSP27; 30 and 60 mg/kg, vs control): increased
Immunoreactivity of HSP27 in the frontal cortex (HSP27; [3]): overexpressed
Immunoreactivity of HSP70 in the frontal cortex (HSP70; 10 mg/kg alone): ineffective
Immunoreactivity of HSP70 in the frontal cortex (HSP70; 30 and 60 mg/kg, vs control): increased
Immunoreactivity of HSP90 in the frontal cortex (HSP90; 10 and 30 mg/kg): reduced
Urinary excretion of the parent compound (normalised to the sum of 4,4′-DMAR and its metabolites, Figure 7B) ([1]; co-administered with (±)trans-4,4′-DMAR 10 mg/kg, vs cis alone): increase
Metabolism and excretion in the mouse urine [2]: metabolised and excreted

Cc1ccc(C2OC(N)=NC2C)cc1 (stereo not drawn) [trans-4,4’-DMAR, 4-methyl-5-(4-methylphenyl)-4,5-dihydrooxazol-2-amine]
Expression of 8-OHdG in the frontal cortex (8-OHdG; 30 mg/kg alone): ineffective
Immunoreactivity of iNOS in the frontal cortex (iNOS; 30 mg/kg alone): ineffective
Immunoreactivity of 3-nitrotyrosine (NT) in the frontal cortex (3-nitrotyrosine (NT); 30 mg/kg): ineffective
Immunoreactivity of Smac/DIABLO in the frontal cortex (Smac/DIABLO; 30 mg/kg alone): ineffective
Immunoreactivity of HSP27 in the frontal cortex (HSP27; 30 mg/kg alone): ineffective
Immunoreactivity of HSP70 in the frontal cortex (HSP70; 30 mg/kg alone): ineffective
Expression of HSP90 in the frontal cortex (HSP90; 30 mg/kg alone): reduced
Phase I/II metabolism ([1]; mice urine): did not exhibit
Metabolism and excretion in the mouse urine [2]: not metabolised
